Legend:
[1] = tested on: human sebocytes immortalized in culture, derived from the SZ95 line; assay: Quantity of lipids produced by sebocytes (Nile Red fluorescence); format: cell-based; conditions: 100 μM, 2 days of treatment, total lipids, SZ95 sebocytes at confluence
Protocol: The test compounds were evaluated on a model of human sebocytes immortalized in culture, derived from the SZ95 line described in Zouboulis, C. C. et al., Establishment and Characterization of an Immortalized Human Sebaceous Gland Cell Line, J. Invest. Dermatol., 113, 1011-1020 (1999).
The test consists of measuring the quantity of lipids produced by the sebocytes of the cell line (at confluence), with or without active agents present, diluted in DMSO, in such a way that the final amount of DMSO in the basal medium is 0.1%. After 2 days of treatment, the adhering cells are treated with Nile Red (1 μg/ml). The lipids content is then quantified by measuring the fluorescence of the stain (two excitation/emission pairs: 485-540 nm for neutral lipids and 540-620 nm for non-neutral lipids). The results are given for total lipids (combining both measurements).
The test is carried out in decaplicate (assayed products and control) in a 96-well plate and renewed 3 times.

[2] = Stability in solution, hydrolysis of the esters by HPLC; format: physicochemical; conditions: hydrolysis of glucopyranose linoleate; 0.1 wt. % in ethanol/isopropanol/water (64/16/20 by volume), 45° C., 2 months
Protocol: The stability of the compounds according to the invention was evaluated (measurement of hydrolysis of the esters).
Solutions were prepared at 0.1 wt. % of the compounds in ethanol/isopropanol/water mixture (64/16/20 by volume). These solutions were left in a thermostat at 45° C., for 2 months.
Then the percentage hydrolysis of glucopyranose linoleate was determined by HPLC.

SZ 95 sebocytes = assay: Cytotoxicity on sebocytes, production of LDH in the basal medium; format: cell-based; conditions: for Variation, LDH/control: 100 μM
Protocol: The tolerance of the glucose ester at 6 of linoleic acid was determined by measuring the cytotoxicity of the product on SZ 95 sebocytes, with linoleic acid alone as control.
The test conditions are identical to those examined in example 1. Cytotoxicity is measured by the production of LDH in the basal medium, according to the method described in Thomas J P et al.; Lethal damage to endothelial cells by oxidized low density lipoprotein: role of selenoperoxidases in cytoprotection against lipid hydroperoxide and iron mediated reactions. Journal of lipid research 34: 479-490. 1993.

[3] = Peroxidizability in the air, proportion of intact molecules by HPLC; format: physicochemical; conditions: storage for two months, at room temperature (about 20 to 25° C.), HPLC with UV detection (210 nm)
Protocol: The purpose of this study is to evaluate the peroxidizability of various molecules or mixtures of molecules by carrying out various tests. These tests consist of measuring the proportion of molecules still intact after storage for two months, in air, at room temperature (about 20 to 25° C.). The loss of the starting product is monitored by HPLC with UV detection (210 nm).

Row | SMILES | Variation, lipid/CONTROL [1] | % hydrolysis [2] | intact molecules [3] | also measured
1 | CCCCCC=CCC=CCCCCCCCC(=O)NC1C(O)OC(CO)C(O)C1O (stereo not shown) | +40% | – | – | –
2 | CCCCCC=CCC=CCCCCCCCC(=O)O[C@H]1[C@H](O)[C@@H](CO)OC(O)[C@@H]1O (stereo partly drawn) [3-O-octadeca-9,12-dienoyl-D-glucopyranose] | – | 30% | – | –
3 | CCCCCC=CCC=CCCCCCCCC(=O)OC[C@H]1OC(O)[C@H](O)[C@@H](O)[C@@H]1O (stereo partly drawn) [6-O-octadeca-9,12-dienoyl-D-glucopyranose] | – | 7% | 30% | Variation, LDH/control (SZ 95 sebocytes; SZ 95 sebocytes, LDH in the basal medium): Not significant; cytotoxicity with respect to sebocytes (in words) (SZ 95 sebocytes; SZ 95 sebocytes): No cytotoxicity was found
4 | C[C@]12CC[C@H](O)CC1=CC[C@@H]1[C@@H]2CC[C@]2(C)C(=O)CC[C@@H]12 [DHEA, dehydroepiandrosterone, reference compound] | +80% | – | – | –
5 | CCCCCC=CCC=CCCCCCCCC(=O)O [Linoleic acid, octadeca-9,12-dienoic acid, reference compound] | – | – | no longer contain intact molecules | Variation, LDH/control (SZ 95 sebocytes; human): +20%
6 | CCCCC/C=C\C/C=C\CCCCCCCC(=O)OC [methyl linoleate] | – | – | no longer contain intact molecules | –
